pIC50: −log10 of the molar value. No end group written: not given here.
Columns and labels:
Test in all cases: biochemical
[1] = target: DR1 (DRB1*0101) (Homo sapiens, UniProt P01903+P01911, A100R/D57E/F55L/F60I/F76Y/I96L/L162R/M171V/P40L/Q125E/R42F/V115G/Y59C); format: binding
[2] = target: DRB1*0405 (Homo sapiens, UniProt P01903+P01911, A100R/A169T/D86S/F76Y/I96L/K127E/L162R/M171V/N62H/P40V/Q125Y/R42H/S133A/S149N/S66Y/V115G/V209L/W38E); format: binding
[3] = target: DRB1*1501 (Homo sapiens, UniProt P01903+P01911); format: binding
[4] = target: DRB1*0901 (Homo sapiens, UniProt P01903+P01911, A100R/A103E/D57H/D86V/F55Y/F60I/F76Y/I96F/K127E/L162R/M171V/P40D/Q125H/Q99R/R33Q/R42F/S133A/S66N/T210M/V115G/W38K/Y107V/Y59G/Y89S); format: binding
[5] = target: DRB1*1101 (Homo sapiens, UniProt P01903+P01911, A100R/A169T/A87E/I96F/K41T/L162R/M171V/P40S/Q125H/Q178H/Q39Y/Q99D/R42S/S66Y/T262R/V115G/W38E); conditions: Binding affinity DRB1 *1101
DRB1*1101, sequence (P01903 26-254 limits assumed, other chains not shown): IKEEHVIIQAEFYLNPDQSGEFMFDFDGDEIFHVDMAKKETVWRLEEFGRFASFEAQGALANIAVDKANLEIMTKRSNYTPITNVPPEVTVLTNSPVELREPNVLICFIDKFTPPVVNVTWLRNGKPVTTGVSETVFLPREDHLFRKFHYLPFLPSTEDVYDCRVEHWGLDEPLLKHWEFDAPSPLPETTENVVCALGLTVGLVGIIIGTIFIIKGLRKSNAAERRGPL

[6] = target: DRB5*0101 (Homo sapiens, UniProt P01903+Q30154); conditions: Binding affinity DRB5 *0101
[7] = target: DRB4*0101 (Homo sapiens, UniProt P01903+P13762, G164S); format: binding
[8] = target: DR4w4 (DRB1*0401) (Homo sapiens, UniProt P01903+P01911, A100K/A169T/F76Y/I96L/K127E/L162R/M171V/N62H/P40V/Q125Y/R42H/S133A/S149N/S66Y/V115G/V209L/W38E); format: binding
[9] = target: DR7 (DRB1*0701) (Homo sapiens, UniProt P01903+P01911, A100R/A102G/A103Q/D57E/D86V/E43K/F76Y/K127E/L162R/M171V/P40G/Q125H/Q99D/R33Q/R42Y/R54Q/S133A/S66F/T210M/V115G/Y107V/Y59L/Y89S); format: binding
[10] = target: DRB1*0802 (Homo sapiens, UniProt P01903+P01911, A100R/A103L/A169T/F76Y/H45Y/I96F/K41T/L162R/M171V/P40S/Q125H/Q178H/Q39Y/Q99D/R218S/R42G/S66Y/V115G/W38E); format: binding
[11] = target: DRB1*1302 (Homo sapiens, UniProt P01903+P01911, A100E/A169T/K41T/L162R/M171V/P40S/Q125H/Q178H/Q39Y/Q99D/R42S/S66N/T262R/V115G/W38E/Y61H); format: binding
DRB1*1302, sequence (P01903 26-254 limits assumed, other chains not shown): as above

Row | Compound | pIC50 [1] | pIC50 [2] | pIC50 [3] | pIC50 [4] | pIC50 [5] | pIC50 [6] | pIC50 [7] | pIC50 [8] | pIC50 [9] | pIC50 [10] | pIC50 [11]
1 | ITHIGHQVVPPMAVS [Peptide 90.0010] | 7.30 | 4.77 | 5.00 | < 4.70 | < 4.70 | < 4.70 | 5.91 | 6.63 | 5.30 | 4.91 | 
2 | LNTVKIPPTVQISTG [Peptide 90.0028] | 5.06 | < 4.70 |  | 5.16 | < 4.70 | < 4.70 | < 4.70 | < 4.70 | < 4.70 | < 4.70 | 6.11
3 | SRVIVCPTSIPSDQI [Peptide 90.0027] | < 4.70 | 5.21 | < 4.70 | < 4.70 | < 4.70 | < 4.70 | < 4.70 | 5.72 | < 4.70 |  | 5.70
4 | ETHMVIEPPKLRSAT [Peptide 89.0103] |  | 5.45 |  | < 4.70 | 5.49 | 5.54 | 5.41 | 6.11 | < 4.70 | 4.91 | 5.84
5 | YFKLFLQGTPKHNCL [Peptide 89.0133] | < 4.70 | 5.21 | < 4.70 | < 4.70 |  | < 4.70 | 7.09 | 6.96 | < 4.70 | < 4.70 | 6.71
6 | ESDMAFQYAQLADCN [Peptide 89.0085] | 7.96 | 4.71 | 5.13 |  | 4.70 | 5.11 | 7.32 | 6.63 | 5.49 | 5.23 | 6.65
7 | LLQLKCPPILLTSNI [Peptide 89.0091] | 7.43 | < 4.70 |  | < 4.70 | < 4.70 | < 4.70 | 6.91 | 5.84 | 6.21 | 5.14 | 
8 | HALFTAQEAKQHRDA [Peptide 89.0001] |  | 5.32 | < 4.70 | < 4.70 | < 4.70 | 5.15 | < 4.70 | 6.69 | < 4.70 |  | < 4.70
9 | CC[C@H](C)[C@H](NC(=O)[C@H](C)NC(=O)[C@H](CCCCN)NC(=O)[C@@H](N)Cc1c[nH]cn1)C(=O)N[C@@H](CCC(=O)O)C(=O)N[C@@H](CC(C)C)C(=O)N[C@@H](CCC(N)=O)C(=O)N[C@@H](CCSC)C(=O)N[C@@H](C)C(=O)N[C@@H](CC(C)C)C(=O)N[C@@H](CCC(N)=O)C(=O)NCC(=O)N[C@@H](CC(C)C)C(=O)N[C@@H](C)C(=O)N[C@@H](CCC(N)=O)C(=O)O [Peptide 89.0160] | < 4.70 | < 4.70 | 5.89 | < 4.70 | 4.77 | < 4.70 | 5.46 | 6.46 | < 4.70 | < 4.70 | 
10 | ILLYGAANTGKSLFG [Peptide 89.0018] | 6.64 | < 4.70 |  | < 4.70 | 5.56 | 5.80 | 5.30 | 6.82 | 5.21 | 5.76 | 5.57
11 | LIQLKCPPILLTTNI [Peptide 89.0038] | 7.82 | 5.40 | 5.17 | < 4.70 | < 4.70 | < 4.70 | 6.80 | 5.42 | 6.00 |  | < 4.70
12 | HQVVPSLVASKTKAF [Peptide 90.0023] | < 4.70 | < 4.70 | < 4.70 | < 4.70 | < 4.70 | < 4.70 | < 4.70 | < 4.70 | 5.56 | < 4.70 | 
13 | LVQLKCPPLLLTSNT [Peptide 89.0077] | 7.29 | 5.46 | 6.11 | 4.93 | 4.75 | 5.35 | 6.51 | 5.40 | 5.96 |  | 5.70
14 | HQVVPPMAVSKAKAC [Peptide 90.0012] | 6.17 | < 4.70 | < 4.70 |  | 5.15 | 5.24 | 6.19 | 5.63 | 6.36 |  | 6.04
15 | QEQMLIQPPKIRSPA [Peptide 89.0124] | < 4.70 | 5.09 | < 4.70 |  |  |  | 5.79 | 6.00 | 5.14 | < 4.70 | < 4.70
16 | RDSVDSAPILTAFNS [Peptide 89.0156] | 5.13 | < 4.70 | 5.32 |  | 5.15 | < 4.70 | 5.88 | 7.70 | 6.47 | < 4.70 | 7.60
17 | SWGMVVLLLVRYKCG [Peptide 89.0005] |  | 6.40 | 5.38 | 6.11 | 5.68 | < 4.70 | 5.38 | 5.33 |  | < 4.70 | 
18 | ELQMALETLSKSQYS [Peptide 89.0183] | 7.10 | 5.48 |  | 6.69 |  | 4.97 | < 4.70 | 6.36 | 5.50 |  | 5.37
19 | LKEFLKGTPKKNCIL [Peptide 89.0086] |  | 4.83 | 5.11 | 4.92 |  | 5.33 | 5.62 | 5.79 | 5.26 | 5.49 | 5.18
20 | TYGVSFMELVRPFKS [Peptide 89.0095] |  | < 4.70 | 6.23 | < 4.70 |  | 5.04 | 6.41 | < 4.70 | 5.12 | < 4.70 | 6.22
21 | CWTYFDNYMRNALDG [Peptide 89.0090] |  | 5.31 |  | < 4.70 | < 4.70 |  | 5.69 | 5.45 | 5.54 | 5.43 | < 4.70
22 | IAYYYAQLADSNSNA [Peptide 89.0072] | 6.42 | 5.31 | 7.01 | 5.51 | < 4.70 | < 4.70 | 5.62 | 6.12 |  | 5.11 | < 4.70
23 | TLAVSKNKALQAIEL [Peptide 89.0150] |  | 5.78 | < 4.70 | 5.28 | < 4.70 | < 4.70 | 7.44 | < 4.70 | < 4.70 | < 4.70 | 
24 | HQVVPALSVSKAKAL [Peptide 89.0169] | 7.00 | 4.81 | < 4.70 | 5.79 | < 4.70 | < 4.70 | < 4.70 | 6.40 | 5.33 | < 4.70 | 
